Measurements as given in patent US9096875B2 (Montana State University, priority 2010, dated 2015).
“And” between values parts separate entries of the source, which are not always exact repeats. Identical values can stand only once. Like-named read-outs stand apart in the source and are kept apart here.

Tests used:
Scenedesmus WC-1 = details: for total Nile Red fluorescence reached: began to increase at 5 d; for Dry Weight (DCW) / Final Cell Density / Final Total Nile Red Fluorescence / Final Specific Nile Red Intensity Cell-1: WC-1, 5% CO2 → Air; for Dry Weight (DCW) / Final Cell Density / Final Total Nile Red Fluorescence: n = 3; for Final Specific Nile Red Intensity Cell-1: fluorescence signal/cell density × 10,000
Description: Cultures were grown with 5% CO2 until nitrate depletion was imminent.
(§1) Scenedesmus sp. strain WC-1 (WC-1) was isolated and confirmed unialgal as previously described (Gardner et al. 2010). WC-1 was cultured on Bold's basal medium with pH adjusted to 8.7 with KOH previous to autoclaving (Nichols and Bold 1965). Phaeodactylum tricornutum strain Pt-1 (CCMP 2561) (Pt-1) was acquired from The Provasoli-Guillard National Center for Culture of Marine Phytoplankton (CCMP). Pt-1 was cultured on ASP II medium and 50 mM Tris buffer (Sigma-Aldrich, St. Louis Mo.), pKa 7.8 (Provasoli et al. 1957). Both organisms were checked for bacterial contamination by inoculation into respective medium supplemented with 0.05% yeast extract and 0.05% glucose and incubated in the dark. Experiments were conducted in triplicate in batch culture using 70 mm×500 mm glass tubes containing 1 L media submersed in a water bath to control temperature. Rubber stoppers, containing ports for aeration and sampling, were used to seal the tubes. Temperature was maintained at 24° C. and 20° C., ±1° C., for WC-1 and Pt-1, respectively. Light (400 μmoles m^−2s^−1) was maintained on a 14:10 light:dark cycle by a T5 light bank. Aeration (400 mL min^−1) was supplied by humidified compressed air with and without 5% CO2 (v/v) and controlled using individual rotameters on each bioreactor (Cole-Parmer, Vernon Hills Ill.).
(§2) Cell concentrations were determined using an optical hemacytometer with a minimum of 400 cells counted for statistical reliability. Light micrographs and Nile Red fluorescence images were taken using a transmitted/epifluorescence light microscope (Nikon Eclipse E800) with an Infinity 2 color camera.
Medium pH was measured on samples using a standard bench top pH meter. Nitrate in Bolds basal medium was measured by ion chromatography (IC) using an IonPac AS9-HC Anion-Exchange Column (Dionex) with a 9.0 mM sodium carbonate buffer set at a flow rate of 1.0 mL min^−1. Detection was performed using a CD20 conductivity detector (Dionex) at 21° C., and IC data was analyzed on Dionex PeakNet 5.2 software. Nitrate in ASP II medium was measured using a colorimetric assay based on the reaction of Czechrome NAS reagent (Polysciences Inc., Warrington Pa.) with nitrate ions. In brief, 1 mL of culture was centrifuged at 16,000 g for 15 minutes. The supernatant liquid was then collected for nitrate quantification. 0.1 mL of sample was gently mixed with 1 mL of reagent solution prepared as described by the manufacturer (Polysciences Inc., Warrington Pa.), and incubated 20 minutes at room temperature. The absorbance was read at 570 nm, and nitrate concentration of the sample was calculated using a nitrate standard curve.
(§3) Cellular TAG accumulation was estimated using the Nile Red (9-diethylamino-5H-benzo(α)phenoxazine-5-one) (Sigma-Aldrich, St. Louis Mo.) fluorescence method (Cooksey et al. 1987). TAG accumulation over time was measured by removing 1 mL aliquots from cultures and assayed directly with Nile Red (4 μL from […] in acetone) or by diluting with 4 mL ultrapure H2O or salt water for WC-1 and Pt-1, respectively, before assaying directly with Nile Red (20 μL from […] in acetone). To maintain linearity of the Nile Red assay, dilution was required when population counts exceeded 1×10^7 cell mL^−1 and 3×10^6 cell mL^−1 for WC-1 and Pt-1, respectively. Total Nile Red fluorescence was quantified on a microplate reader (Bio-Tek, Winooski, Vt.) utilizing 480/580 nm excitation/emission filters.

[1] = tested on: Phaeodactylum tricornutum Pt-1
Description: The diatom was cultured in ASP II medium, with or without adding NaHCO3 under 14:10 L:D cycle at […] A non-limiting example of ASP II medium is shown below:
as §1, §2
as §3, with “filters. […] To minimize fluorescence spillover, black walled 96-well plates were loaded with 200 μL of sample. Unstained samples were used for background medium and cellular autofluorescence correction. […]” for “filters.”

diatom RGd-1 = details: bicarbonate spike at 7.4 d, within 2-3 d of the spike, ambient air, 14:10 light-dark
Text: RGd-1 was obtained from Yellowstone National Park under Permit No. YELL-2009-SCI-5480. These cultures were illuminated with 14:10 light-dark cycling with ambient air aeration.

Coelastrella sp. PC-3 = tested on: Coelastrella sp. PC-3
Description: The addition of 50 mM NaHCO3 prior to nitrate depletion was tested on Coelastrella sp. PC-3.

Chlorophyta sp. EN-2 = details: 50 mM NaHCO3 prior to nitrate depletion
Description: The addition of 50 mM NaHCO3 prior to nitrate depletion was tested on Chlorophyta sp. EN-2.

Kirchneriella sp. 92 = details: 50 mM NaHCO3 prior to nitrate depletion
Description: (§4) The addition of 50 mM NaHCO3 prior to nitrate depletion was tested on Chlorophytes Scenedesmus sp.

Scenedesmus sp. 131 = details: 50 mM NaHCO3 prior to nitrate depletion
Description: as §4

[2] = HCO3 addition at 3.7 d (pre-nitrate depletion), harvest 8.0 d
[3] = HCO3 addition at 6.4 d (post-nitrate depletion), harvest 12.0 d

## O=C([O-])O.[Na+] [bicarbonate, sodium bicarbonate]
Scenedesmus WC-1; 25 mM NaHCO3 with 25 mM CAPS buffer (pKa 10.3), near nitrate depletion
  TAG induction: almost identical to the unbuffered additions
Scenedesmus WC-1; 50 mM bicarbonate added at 3.7 d (pre-nitrate depletion)
  period of TAG accumulation: 5 to 8 days
Scenedesmus WC-1; 50 mM bicarbonate added at 6.4 d, post-nitrate depletion
  Nile Red fluorescence after decrease to baseline: 450 units
Scenedesmus WC-1; 50 mM bicarbonate added post-nitrate depletion (stationary phase), aeration adjusted to ambient air, listed as NaHCO3
  Nile Red fluorescence / TAG accumulation response: complete loss of cellular TAG accumulation
Scenedesmus WC-1; 25 and 50 mM added to unbuffered medium near nitrate depletion (FIG. 15)
  TAG accumulation: induce similar levels of TAG
Scenedesmus WC-1; Example 4: 50 mM bicarbonate spike at 3.7 d, value 4 days later
  total Nile Red fluorescence reached: 20,000 units
Scenedesmus WC-1; Example 5: 50 mM bicarbonate addition at 3.7 d, value 3 days later
  total Nile Red fluorescence reached: 33,500 units
Scenedesmus WC-1; [2]
  Dry Weight (DCW): 1.1 ± 0.1 g/L
  Final Cell Density: 1.34 ± 0.15 ×10^7 cells mL^−1
  Final Total Nile Red Fluorescence: 33.5 ± 6.3 ×10^3 units
  Final Specific Nile Red Intensity Cell-1: 24.8 ± 2.2
Scenedesmus WC-1; [3]
  Dry Weight (DCW): 2.1 ± 0.0 g/L
  Final Cell Density: 5.18 ± 0.41 ×10^7 cells mL^−1
  Final Total Nile Red Fluorescence: 0.3 ± 0.3 ×10^3 units
  Final Specific Nile Red Intensity Cell-1: 0.1 ± 0.1
Scenedesmus WC-1; addition just prior to medium nitrate depletion
  minimal concentration range needed to stop cellular replication: 10 to 15 mM
Scenedesmus WC-1; bicarbonate supplemented culture, instead of 16-18 d in ambient aerated culture
  culture time at which maximum total Nile Red fluorescence was reached: 8 days
Scenedesmus WC-1; less than 10 mM NaHCO3 addition
  cell morphology by microscope: did not indicate cell cycle halting characteristics
Scenedesmus WC-1; when bicarbonate was added (50 mM, near nitrate depletion), versus ambient aerated culture
  rate of TAG accumulation: twice as fast
Scenedesmus WC-1; with bicarbonate spike, compared with 8-10 d under ambient air aeration with no spike
  time to reach maximum Nile Red fluorescence signal: 3 to 4 days
[1]
  Dry Weight (DCW): 0.1 ± 0.0 g/L
  Final Cell Density: 0.65 ± 0.01 ×10^7 cells mL^−1 and 1.02 ± 0.05 ×10^7 cells mL^−1
  effect on cell replication: cell replication was not inhibited
  lipid production (Nile Red fluorescence): stimulated more lipid production
Diatom RGd-1
  total Nile Red fluorescence increase over the no spike control: 10 fold
Coelastrella sp. PC-3
  TAG accumulation measured with Nile Red fluorescence: no observable increase in TAG accumulation
  effect on cellular replication: cellular replication ceased
Chlorophyta sp. EN-2
  TAG accumulation rate: observable increase
  TAG per cell level (Nile Red specific fluorescence): observable increase
Kirchneriella sp. 92
  TAG accumulation rate: decrease in TAG accumulation rate
Scenedesmus sp. 131
  TAG accumulation rate: increase in TAG accumulation rate

## O=C([O-])[O-].[Na+].[Na+] [Na2CO3, sodium carbonate, reference compound]
Scenedesmus WC-1; all cases of Na2CO3 addition (individual, mix, buffered), near nitrate depletion
  TAG accumulation: did not accumulate elevated levels of TAG
